Numbers after ± are expanded uncertainties.
Conditions: 101.33 kPa, Liquid, Vibrating tube method

CCCC[n+]1ccccc1.O=S(=O)([N-]S(=O)(=O)C(F)(F)F)C(F)(F)F [1-butylpyridinium bis[(trifluoromethyl)sulfonyl]imide]
mass density (303.15 K): 1449.8 ± 2.1 kg/m3 | mass density (313.15 K): 1440.3 ± 2.1 kg/m3 | mass density (323.15 K): 1431.1 ± 2.1 kg/m3 | mass density (333.15 K): 1421.9 ± 2.1 kg/m3

CCCC[n+]1ccccc1.N#C[N-]C#N [1-butylpyridinium dicyanamide]
mass density (303.15 K): 1074.8 ± 2 kg/m3 | mass density (313.15 K): 1069.7 ± 2 kg/m3 | mass density (323.15 K): 1064.4 ± 2 kg/m3 | mass density (333.15 K): 1059.5 ± 2 kg/m3
